Our source for the IC50 values is patent US9388166B2, “6-aminoindole derivatives as TRP channel antagonists” (Hoffmann-La Roche Inc., priority 2012, dated 2016).

Molecules are shown by their SMILES.

The assay deals with T1, hTRPA1 (Homo sapiens, UniProt O75762).
T1 construct: host or cells: CHO-K1 Tet-On, clone 20, expression induced with tetracycline/doxycycline
T1 sequence (O75762 whole entry): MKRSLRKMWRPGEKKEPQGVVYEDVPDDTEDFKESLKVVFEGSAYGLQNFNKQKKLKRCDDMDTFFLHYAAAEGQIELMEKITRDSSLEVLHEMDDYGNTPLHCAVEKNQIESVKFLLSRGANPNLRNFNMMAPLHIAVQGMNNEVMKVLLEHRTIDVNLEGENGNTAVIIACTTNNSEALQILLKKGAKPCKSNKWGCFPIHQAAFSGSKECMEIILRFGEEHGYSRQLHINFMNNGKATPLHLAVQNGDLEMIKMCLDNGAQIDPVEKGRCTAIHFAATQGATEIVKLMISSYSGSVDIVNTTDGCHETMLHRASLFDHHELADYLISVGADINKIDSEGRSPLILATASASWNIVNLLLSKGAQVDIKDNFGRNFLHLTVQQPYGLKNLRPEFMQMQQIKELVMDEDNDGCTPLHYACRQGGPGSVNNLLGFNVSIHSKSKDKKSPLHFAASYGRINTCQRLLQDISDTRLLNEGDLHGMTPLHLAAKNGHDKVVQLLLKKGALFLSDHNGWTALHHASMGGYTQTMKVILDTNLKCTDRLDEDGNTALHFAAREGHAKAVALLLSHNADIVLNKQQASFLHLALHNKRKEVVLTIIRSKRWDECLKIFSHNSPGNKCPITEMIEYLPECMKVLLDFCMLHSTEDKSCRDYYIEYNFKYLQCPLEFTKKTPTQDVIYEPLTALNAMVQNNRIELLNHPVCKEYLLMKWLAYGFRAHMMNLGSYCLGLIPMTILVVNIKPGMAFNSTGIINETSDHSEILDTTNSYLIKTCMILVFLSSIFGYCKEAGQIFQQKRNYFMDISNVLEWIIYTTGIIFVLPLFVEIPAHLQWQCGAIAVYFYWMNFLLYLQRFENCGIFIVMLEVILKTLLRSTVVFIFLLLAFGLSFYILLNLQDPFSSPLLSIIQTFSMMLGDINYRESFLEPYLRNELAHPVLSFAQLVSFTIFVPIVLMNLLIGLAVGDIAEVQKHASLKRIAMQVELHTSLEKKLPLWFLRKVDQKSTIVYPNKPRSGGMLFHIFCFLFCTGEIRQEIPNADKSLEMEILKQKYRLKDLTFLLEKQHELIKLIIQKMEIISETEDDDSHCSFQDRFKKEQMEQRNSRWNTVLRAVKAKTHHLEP
The experiment in a line: Dose response calcium flux (FLIPR) assay, ChanTest hTRPA1-CHO stably transfected cell line, cinnamaldehyde agonist. In kind it is cell-based. The following applies: CHO-K1 Tet-On hTRPA1 Clone 20 cells, 30 min compound preincubation, cinnamaldehyde final 100 uM. The method, then:
Dose Response Assay: ChanTest hTRPA1-CHO Stably Transfected Cell Line
To induce expression, tetracycline was added to blasticidin/zeocin-free media at a final concentration of 1 ug/ml. Experiments were run at 24 h post induction.
Measured cell density and diluted to 2.4×10^5 cells/ml in media containing 1 ug/ml Doxycycline Plate 25 ul/well into 384 well black/clear tissue culture-treated plates.
Replacement Buffer: Hank's Balanced Salt Solution, 20 mM HEPES along with 0.005% BSA and 2× Probenecid
Dye Loading Buffer: Cal-3 NW Calcium dye was prepared by dissolving the contents of one vial with 500 ml Hank's Balanced Salt Solution containing 20 mM HEPES. • Control compounds for CHOK1/TRPA1 cells:
AP-18, stock 10 mM, prepare 3.5× compound dilution in a Compound Buffer (HBSS/20mM HEPES/0.005% BSA)—final concentration 10 uM.
Preparation of Cinnamaldehyde (agonist addition): • FW=132.16 • Specific gravity=1.046 gm/cc • 1.32 gm/1.046 gm/cc=1.26 ml of stock • Add 1.74 ml DMSO=3.3 M stock • Working solution 4.5× (final 100 uM in Compound Buffer: HBSS/20 mM HEPES/0.005% BSA)
Compounds dilutions were prepared from 5 or 10 mM stock (100% DMSO):
Compounds were tested at either 20 μM three folds dilution 11 steps out or 30 μM two folds dilution 11 steps out.
3 μl of diluted compound were transferred into Weidmann 384—well plate in duplicates side-by-side.
Compound plates were resuspended with 100 ul of HBSS/20 mM HEPES/0.005% BSA buffer (Compound Buffer): • column 1A-H: buffer/DMSO (bk) • column 2A-H: AP-18(control antagonist for CHOK1 TRPA1 cells) • column 1I-P: ATP (control for CHOK1 teton cells) • column 2 I-P: 2APB (control antagonist for CHOK1/TRPM8 cells).
Growth media was removed from the cell plates (20 ul) and 20 ul of the Replacement Buffer was added followed by addition of 25 ul of diluted dye. All three steps were performed using a Plate Washer BioTek 407. The plates were then incubated for 30′ at RT.
After incubation, both the cell and compound plates were brought to the FLIPR and 20 ul of the diluted compounds/antagonist/bk were transferred to the cell plates by the FLIPR. Plates were then incubated for 30′ at room temperature. After 30′ incubation, plates were returned to the FLIPR and 20 ul of 4.5× Cinnamaldehyde was added to the cell plates. During the compound addition as well as agonist addition, fluorescence readings were taken simultaneously from all 384 wells of the cell plate every 1.5 seconds. Five readings were taken to establish a stable baseline, then 20 μl of sample was rapidly (30 ul/sec) and simultaneously added to each well of the cell plate. The fluorescence was continuously monitored before, during and after sample/agonist addition for a total elapsed time of 100 seconds (compound addition) and 120 seconds (agonist addition). Responses (increase in peak fluorescence) in each well following agonist addition was determined. The initial fluorescence reading from each well, prior to ligand stimulation, was used a zero baseline value for the data from that well.
A general note: Calcium assays in cells follow changes in intracellular calcium, usually with a dye or a luminescent sensor.
`COc1nccc(I)c1-c1cc2ccc(NC(=O)OC(C)(C)C)cc2[nH]1` [Example 1, [2-(4-Iodo-2-methoxy-pyridin-3-yl)-1H-indol-6-yl]-carbamic acid tert-butyl ester]: the IC50 came out at 4 µM.

As to `COc1nccc(I)c1-c1cc2ccc(NC(=O)C(F)(F)F)cc2[nH]1` [Example 2, 2,2,2-Trifluoro-N-[2-(4-iodo-2-methoxy-pyridin-3-yl)-1H-indol-6-yl]-acetamide], the IC50 came to 0.71 µM.

Take `COc1nccc(I)c1-c1cc2ccc(NC(=O)C(F)F)cc2[nH]1` [Example 3, 2,2-Difluoro-N-[2-(4-iodo-2-methoxy-pyridin-3-yl)-1H-indol-6-yl]-acetamide]: the IC50 turned out to be 4.2 µM.

For the compound `COc1nccc(Cl)c1-c1cc2ccc(NC(=O)C(F)(F)F)cc2[nH]1` [Example 4, N-[2-(4-Chloro-2-methoxy-pyridin-3-yl)-1H-indol-6-yl]-2,2,2-trifluoro-acetamide], the IC50 came to 0.46 µM.

As for `CNc1ccc2cc(-c3c(I)ccnc3OC)[nH]c2c1` [Example 5, [2-(4-Iodo-2-methoxy-pyridin-3-yl)-1H-indol-6-yl]-methyl-amine], the IC50 was determined as 5.5 µM.

Take `COc1nccc(I)c1-c1cc2ccc(N(C)C(=O)C(F)F)cc2[nH]1` [Example 6, 2,2-Difluoro-N-[2-(4-iodo-2-methoxy-pyridin-3-yl)-1H-indol-6-yl]-N-methyl-acetamide]: the IC50 was determined as 3.3 µM.

For the compound `COc1nccc(I)c1-c1cc2ccc(N(C)C(C)=O)cc2[nH]1` [Example 7, N-[2-(4-Iodo-2-methoxy-pyridin-3-yl)-1H-indol-6-yl]-N-methyl-acetamide], the IC50 came out at 3.6 µM.

As to `COc1cc2cc(-c3c(I)ccnc3OC)[nH]c2cc1N` [Example 8, 2-(4-Iodo-2-methoxy-pyridin-3-yl)-5-methoxy-1H-indol-6-ylamine], the IC50 was found to be 0.74 µM.

For `COc1cccc(Cl)c1-c1cc2ccc(N)cc2[nH]1` [Example 9, 2-(2-Chloro-6-methoxy-phenyl)-1H-indol-6-ylamine], the IC50 came out at 4.3 µM.

On to `COc1cccc(Cl)c1-c1cc2ccc(NC(=O)C(F)(F)F)cc2[nH]1` [Example 10, N-[2-(2-Chloro-6-methoxy-phenyl)-1H-indol-6-yl]-2,2,2-trifluoro-acetamide], for which the IC50 turned out to be 0.75 µM.

Turning to `COc1nccc(I)c1-c1cc2ccc(NC(=O)c3cccc(Cl)c3)cc2[nH]1` [Example 11, 3-Chloro-N-[2-(4-iodo-2-methoxy-pyridin-3-yl)-1H-indol-6-yl]-benzamide], the IC50 worked out at 2.9 µM.

In the case of `COc1nccc(Cl)c1-c1cc2ccc(NC(=O)c3cccc(Cl)c3)cc2[nH]1` [Example 12, 3-Chloro-N-[2-(4-chloro-2-methoxy-pyridin-3-yl)-1H-indol-6-yl]-benzamide], the IC50 amounted to 5.6 µM.

With `COc1nccc(Cl)c1-c1cc2ccc(NC(=O)[C@@H]3CCCCN3S(=O)(=O)c3ccc(F)cc3)cc2[nH]1` [Example 13, (S)-1-(4-Fluoro-benzenesulfonyl)-piperidine-2-carboxylic acid[2-(4-chloro-2-methoxy-pyridin-3-yl)-1H-indol-6-yl]amide], the IC50 amounted to 3.5 µM.

Broadly, the IC50 is the concentration that gives 50% inhibition.
